Experimental findings from US8242118B2, “Arylsulfonamide derivatives for use as CCR3 antagonists in the treatment of inflammatory and immunological disorders” (Axikin Pharmaceuticals Inc., priority 2001, dated 2012) are described below.

SMILES strings stand for the structures. Where a name gives a salt, the structure may show the parent alone. A value given as a limit tells only on which side of the number the result lay.

This assay has as its target T1, Human CCR3 (Homo sapiens, UniProt P51677).
T1 construct: The cloned CCR3 cDNA was constructed with pcDNA3 vector and transfected into a IC562 cell line; expressed in transfected cells
T1 sequence (P51677 1-355): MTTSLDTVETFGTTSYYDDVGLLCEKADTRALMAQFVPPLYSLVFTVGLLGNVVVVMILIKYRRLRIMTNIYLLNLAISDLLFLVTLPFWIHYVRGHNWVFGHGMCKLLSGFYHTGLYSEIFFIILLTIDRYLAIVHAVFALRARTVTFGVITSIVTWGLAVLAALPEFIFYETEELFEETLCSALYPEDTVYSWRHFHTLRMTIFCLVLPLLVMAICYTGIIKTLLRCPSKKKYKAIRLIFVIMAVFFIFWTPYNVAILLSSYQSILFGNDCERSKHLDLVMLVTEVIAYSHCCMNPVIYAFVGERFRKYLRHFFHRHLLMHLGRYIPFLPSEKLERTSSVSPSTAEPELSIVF
Put plainly: Calcium mobilization assay, eotaxin-stimulated. As to conditions: human CCR3-transformed K562 cells, 10 nM eotaxin; compounds of about 40 to 90% purity; read-out: Activity grade Ca2+ (IC50 class). It counts as cell-based. Put shortly: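 Eotaxin (10 nM final) triggered calcium flux, monitored 60 s with Fluo-3AM, in butyrate-pretreated (5 mM, 20–24 h) CCR3-transfected K562 cells. Compounds preincubated 10 min; percent inhibition per concentration yielded IC50.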
Turning to `Cc1cc(C)cc(Oc2ccc([N+](=O)[O-])cc2S(=O)(=O)N2CCN(C(=O)OC(C)(C)C)CC2)c1` [Example 1-1, tert-butyl 4-{[2-(3,5-dimethylphenoxy)-5-nitrophenyl]sulfonyl}-1-piperazinecarboxylate], the IC50 is greater than 10000 nM.

On to `Cc1cc(C)cc(Oc2ccc([N+](=O)[O-])cc2S(=O)(=O)N2CCNCC2)c1` [Example 1-2, 1-{[2-(3,5-dimethylphenoxy)-5-nitrophenyl]sulfonyl}piperazine hydrochloride], for which the concentration for half-maximal inhibition (IC50) is less than 1000 nM.

With `Cl.O=[N+]([O-])c1ccc(Oc2cc(F)cc(F)c2)c(S(=O)(=O)N2CCNCC2)c1` [Example 1-4], the IC50 was less than 1000 nM.

On to `COc1cc(OC)cc(Oc2ccc([N+](=O)[O-])cc2S(=O)(=O)N2CCNCC2)c1.Cl` [Example 1-5], for which the half-maximal inhibitory concentration (IC50) is greater than 10000 nM.

On to `Cl.O=[N+]([O-])c1ccc(Oc2cc(C(F)(F)F)cc(C(F)(F)F)c2)c(S(=O)(=O)N2CCNCC2)c1` [Example 1-6], for which the IC50 was less than 1000 nM.

For the compound `CC(C)(C)c1cc(Oc2ccc([N+](=O)[O-])cc2S(=O)(=O)N2CCNCC2)cc(C(C)(C)C)c1.Cl` [Example 1-7], the IC50 is greater than 10000 nM.

With `Cc1cc(Oc2ccc([N+](=O)[O-])cc2S(=O)(=O)N2CCNCC2)cc(C(C)C)c1.Cl` [Example 1-8], the IC50 is less than 1000 nM.

Consider `CC(C)c1cccc(Oc2ccc([N+](=O)[O-])cc2S(=O)(=O)N2CCNCC2)c1.Cl` [Example 1-9], for which the concentration for half-maximal inhibition (IC50) is less than 1000 nM.

For `Cl.N#Cc1cccc(Oc2ccc([N+](=O)[O-])cc2S(=O)(=O)N2CCNCC2)c1` [Example 1-10], the IC50 was in the range of 1000 to 10000 nM.

Take `Cl.O=[N+]([O-])c1ccc(Oc2cccc3ccccc23)c(S(=O)(=O)N2CCNCC2)c1` [Example 1-11]: the half-maximal inhibitory concentration (IC50) is less than 1000 nM.

For `Cc1ccccc1Oc1ccc([N+](=O)[O-])cc1S(=O)(=O)N1CCNCC1.Cl` [Example 1-12], the IC50 lay in the range of 1000 to 10000 nM.

For `Cl.Cl.Cl.Nc1ccc(Oc2ccc([N+](=O)[O-])cc2S(=O)(=O)N2CCNCC2)cc1` [Example 1-13], the IC50 is greater than 10000 nM.

Turning to `O=[N+]([O-])c1ccc(Oc2ccccc2)c(S(=O)(=O)N2CCNCC2)c1` [Example 1-18], the IC50 was 1000 to 10000 nM.

For `COc1ccc(Oc2ccc([N+](=O)[O-])cc2S(=O)(=O)N2CCNCC2)cc1` [Example 1-19], the IC50 is greater than 10000 nM.

Consider `O=[N+]([O-])c1ccc(Oc2ccc(F)cc2)c(S(=O)(=O)N2CCNCC2)c1` [Example 1-20], for which the 50% inhibitory concentration (IC50) was greater than 10000 nM.

Turning to `CC(C)(C)c1ccc(Oc2ccc([N+](=O)[O-])cc2S(=O)(=O)N2CCNCC2)cc1` [Example 1-21], the IC50 was greater than 10000 nM.

As to `O=[N+]([O-])c1ccc(Oc2ccc(Cl)cc2)c(S(=O)(=O)N2CCNCC2)c1` [Example 1-22], the IC50 is greater than 10000 nM.

Turning to `O=[N+]([O-])c1ccc(Oc2cccc(F)c2)c(S(=O)(=O)N2CCNCC2)c1` [Example 1-25], the IC50 was less than 1000 nM.

Regarding `COc1ccccc1Oc1ccc([N+](=O)[O-])cc1S(=O)(=O)N1CCNCC1.Cl` [Example 1-27], the IC50 is less than 1000 nM.

In the case of `Cl.O=[N+]([O-])c1ccc(Oc2ccccc2Cl)c(S(=O)(=O)N2CCNCC2)c1` [Example 1-28], the IC50 is less than 1000 nM.

On to `N#Cc1ccccc1Oc1ccc([N+](=O)[O-])cc1S(=O)(=O)N1CCNCC1` [Example 1-29], for which the IC50 was in the range of 1000 to 10000 nM.

Turning to `CC(=O)c1ccccc1Oc1ccc([N+](=O)[O-])cc1S(=O)(=O)N1CCNCC1.Cl` [Example 1-30], the IC50 was greater than 10000 nM.

Consider `CC(=O)c1cccc(Oc2ccc([N+](=O)[O-])cc2S(=O)(=O)N2CCNCC2)c1.Cl` [Example 1-31], for which the concentration for half-maximal inhibition (IC50) was greater than 10000 nM.

For `CN(C)c1cccc(Oc2ccc([N+](=O)[O-])cc2S(=O)(=O)N2CCNCC2)c1.Cl` [Example 1-32], the half-inhibitory concentration (IC50) is 1000 to 10000 nM.

`Cl.O=[N+]([O-])c1ccc(Oc2cc(Cl)cc(Cl)c2)c(S(=O)(=O)N2CCNCC2)c1` [Example 1-33]: the IC50 is less than 1000 nM.

For `Cl.O=[N+]([O-])c1ccc(Oc2cccc(C(F)(F)F)c2)c(S(=O)(=O)N2CCNCC2)c1` [Example 1-34], the IC50 is less than 1000 nM.
